Assay results reported in patent publication US20080280920A1, “Plasminogen Activator Inhibitor-1 Inhibitors” (priority 2005, published 2008).

Legend:
HL-60(TB) = experiment: NCI anticancer screen, HL-60(TB); format: cell-based, human; conditions: Leukemia, 48 h
SK-OV-3 = experiment: NCI anticancer screen, SK-OV-3; format: cell-based, human; conditions: SK-OV-3, Ovarian, 48 h
LOX IMVI = experiment: NCI anticancer screen, LOX IMVI; format: cell-based, human; conditions: Melanoma, 48 h
NCI-H226 = experiment: NCI anticancer screen, NCI-H226; format: cell-based, human; conditions: NCI-H226, Non-Small Cell Lung, 48 h
NCI-H322M = experiment: NCI anticancer screen, NCI-H322M; format: cell-based, human; conditions: Non-Small Cell Lung, 48 h
ACHN = experiment: NCI anticancer screen, ACHN; format: cell-based, human; conditions: Renal, 48 h
NCI/ADR-RES = experiment: NCI anticancer screen, NCI/ADR-RES; format: cell-based, human; conditions: Breast, 48 h
MALME-3M = experiment: NCI anticancer screen, MALME-3M; format: cell-based, human; conditions: Melanoma, 48 h
MOLT-4 = experiment: NCI anticancer screen, MOLT-4; format: cell-based, human; conditions: MOLT-4, Leukemia, 48 h
HCC-2998 = experiment: NCI anticancer screen, HCC-2998; format: cell-based, human; conditions: HCC-2998, Colon, 48 h
HCT-116 = experiment: NCI anticancer screen, HCT-116; format: cell-based, human; conditions: HCT-116, Colon, 48 h
PC-3 = experiment: NCI anticancer screen, PC-3; format: cell-based, human; conditions: PC-3, Prostate, 48 h
MDA-MB-435 = experiment: NCI anticancer screen, MDA-MB-435; format: cell-based, human; conditions: MDA-MB-435, Breast, 48 h
wildtype human PAI-1 = biological target: T1, wildtype human PAI-1 (Homo sapiens, UniProt P05121); experiment: PAI-1/uPA assay (residual uPA activity, fluorescent substrate SpectroFluor); format: biochemical; conditions: within the concentration range tested
T1 construct: purchased Molecular Innovations Lot# HWT-804
Description: Principle: The assay is based on using a fluorescent substrate (SpectroFluor) to measure residual uPA following inhibition of uPA by PAI-1. PAI-1 used in the assay is pre-treated in the presence of increasing concentrations of the lead compounds to screen for any inhibitory effects on PAI-1. Method: This assay was performed in 96 well microtiter plates. The concentrations of uPA (8 nM) and PAI-1 (6 nM) used in this assay were carefully optimized when using the fluorescent substrate, SpectroFluor™. Stock solutions (10 mM) of all lead compounds were prepared fresh in DMSO. […] 20 μl of 6 nM wildtype human PAI-1 (Molecular Innovations, Lot# HWT-804) was incubated for 15-20 minutes at room temperature in 96 well microtiter plates either with buffer, (50 mM HEPES, 150 mM NaCl, 0.05% Tween-20, 1% BSA, pH 6.6) or various concentrations (10 nM to 100 μM final concentration) of lead compounds in a total volume of 80 μl. A 20 μl aliquot of 8 nM uPA (HMW) solution in 0.05M Tris Buffered™ saline (TBS), pH 8.4 was added to each well and the mixture incubated for an additional 5 minutes at RT. The proteolytic reaction was initiated by addition of 50 μl of 0.1 mM SpectroFluor (Spectrozyme UK Fluorogenic substrate) to each well. The kinetics of the free chromophore, 7-amino-4-methylcoumarin (AMC) released in the course of peptide cleavage by the protease, uPA, was monitored for 30 minutes at 37° C. on a spectrofluorometric microplate reader with an excitation wavelength of 360 nm and emission wavelength of 440 nm. Kinetic data regarding the rate of substrate cleavage by uPA was acquired with Softmax PrO™ software. The difference between the residual uPA activity in the presence or absence of untreated PAI-1, at the molar ratio used, was considered as the “total” PAI-1 activity (100%). The inhibition of uPA by PAI-1 treated with lead compounds was expressed as a percentage of the initial activity of untreated PAI-1. Controls were performed during each experiment to ensure the nearly complete inhibition of uPA by untreated PAI-1 and also to ensure the absence of any direct effect of the lead compounds on uPA alone or on SpectroFluor.

SR = experiment: NCI anticancer screen, SR; format: cell-based, human; conditions: Leukemia, 48 h
NCI-H460 = experiment: NCI anticancer screen, NCI-H460; format: cell-based, human; conditions: NCI-H460, Non-Small Cell Lung, 48 h
[1] = tested on: 60 different human cancer cell lines; experiment: NCI in vitro anticancer screen (whole panel); format: cell-based
U251 = experiment: NCI anticancer screen, U251; format: cell-based, human; conditions: U251, CNS, 48 h
SW-620 = experiment: NCI anticancer screen, SW-620; format: cell-based, human; conditions: SW-620, Colon, 48 h
SNB-75 = experiment: NCI anticancer screen, SNB-75; format: cell-based, human; conditions: SNB-75, CNS, 48 h
UACC-257 = experiment: NCI anticancer screen, UACC-257; format: cell-based, human; conditions: UACC-257, Melanoma, 48 h
[2] = Homo sapiens, read-out: LC50 (the source's name)

T1 sequence (P05121 24-402): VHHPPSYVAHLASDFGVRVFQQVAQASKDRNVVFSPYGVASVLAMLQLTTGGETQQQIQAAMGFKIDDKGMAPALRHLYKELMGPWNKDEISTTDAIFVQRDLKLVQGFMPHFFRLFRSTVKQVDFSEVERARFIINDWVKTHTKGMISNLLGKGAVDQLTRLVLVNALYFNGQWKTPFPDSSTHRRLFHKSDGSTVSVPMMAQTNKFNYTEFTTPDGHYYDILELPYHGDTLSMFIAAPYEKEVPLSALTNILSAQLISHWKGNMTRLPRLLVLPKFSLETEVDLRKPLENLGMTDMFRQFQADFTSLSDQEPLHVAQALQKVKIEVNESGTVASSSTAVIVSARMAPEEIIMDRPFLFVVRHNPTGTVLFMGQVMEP

COc1cc(CNCC2CCN(C(=O)OC(C)(C)C)CC2)cc(CN2CCN(c3ccccn3)CC2)c1O [Compound Q012132, 2-Methoxy-4-({[(N-t-butyloxycarbonylpiperidin-4-yl)methyl]amino}methyl)-6-[(4-pyridin-2-ylpiperazin-1-yl)methyl]phenol]
GI50 (HL-60(TB); Homo sapiens): 14.8 µM
CC50 (HL-60(TB); [2]): 72.6 µM
TGI (HL-60(TB)): 32.8 µM
GI50 (SK-OV-3; Homo sapiens): 29.4 µM
CC50 (SK-OV-3; [2]): > 100 µM
TGI (SK-OV-3): 98.8 µM
GI50 (LOX IMVI; Homo sapiens): 14.1 µM
LC50 (concentration giving 50% net cell kill) (LOX IMVI; Homo sapiens): 55.1 µM
TGI (LOX IMVI): 27.9 µM
GI50 (NCI-H226; Homo sapiens): 65.5 µM
LC50 (concentration giving 50% net cell kill) (NCI-H226; Homo sapiens): > 100 µM
TGI (NCI-H226): >100 µM
GI50 (NCI-H322M; Homo sapiens): 37.8 µM
CC50 (NCI-H322M; [2]): > 100 µM
TGI (NCI-H322M): >100 µM
GI50 (ACHN; Homo sapiens): 21 µM
CC50 (ACHN; [2]): > 100 µM
TGI (ACHN): 48.5 µM
TGI (NCI/ADR-RES): 79.2 µM
GI50 (NCI/ADR-RES; Homo sapiens): 21.4 µM
CC50 (NCI/ADR-RES; [2]): > 100 µM
GI50 (MALME-3M; Homo sapiens): 15.7 µM
CC50 (MALME-3M; [2]): 65.5 µM
TGI (MALME-3M): 32.0 µM
GI50 (MOLT-4; Homo sapiens): 13 µM
CC50 (MOLT-4; [2]): > 100 µM
TGI (MOLT-4): 42.4 µM
TGI (HCC-2998): 28.9 µM
GI50 (HCC-2998; Homo sapiens): 14.5 µM
LC50 (HCC-2998; Homo sapiens): 57.7 µM
TGI (HCT-116): 22.6 µM
GI50 (HCT-116; Homo sapiens): 10.8 µM
LC50 (50% lethal concentration) (HCT-116; Homo sapiens): 47.6 µM
GI50 (PC-3; Homo sapiens): 21.8 µM
CC50 (PC-3; [2]): > 100 µM
TGI (PC-3): 81.1 µM
GI50 (MDA-MB-435; Homo sapiens): 18.2 µM
CC50 (MDA-MB-435; [2]): 73.1 µM
TGI (MDA-MB-435): 36.4 µM
Conc. of compound required for PAI-1 inhibition (result in words) (wildtype human PAI-1): No inhibition
GI50 (SR; Homo sapiens): 11 µM
CC50 (SR; [2]): 84.4 µM
TGI (SR): 30.5 µM
GI50 (NCI-H460; Homo sapiens): 21.3 µM
CC50 (NCI-H460; [2]): 81.7 µM
TGI (NCI-H460): 41.7 µM
growth and proliferation of human primary cancer cell-lines (in words) ([1]; NCI screen, 48 h): inhibited growth and proliferation
cytostatic / cytotoxic effects on human cancer cell-lines (in words) ([1]; low micromolar concentrations, leukemia, melanoma, colon and central nervous system cell-lines): cytostatic and cytotoxic effects
GI50 (U251; Homo sapiens, U-251): 15.1 µM
CC50 (U251; Homo sapiens, U-251, read-out: LC50 (the source's name)): 55.8 µM
TGI (U251): 29.1 µM
GI50 (SW-620; Homo sapiens): 16.1 µM
CC50 (SW-620; [2]): 59.1 µM
TGI (SW-620): 30.8 µM
GI50 (SNB-75; Homo sapiens): 22.3 µM
LC50 (concentration killing 50% of cells) (SNB-75; Homo sapiens): > 100 µM
TGI (SNB-75): 49.8 µM
GI50 (UACC-257; Homo sapiens): 18.4 µM
CC50 (UACC-257; [2]): > 100 µM
TGI (UACC-257): 45.7 µM
